Results taken from patent US12459943B2, “Crystalline solid forms of a BET inhibitor” (Incyte Corporation, priority 2016, dated 2025).

What was measured:
[1] = Relative stability and interconversion of crystalline forms in organic solvents; type: physicochemical
[2] = Stability of crystalline forms in aqueous suspension; type: physicochemical
Experimental: Recrystallization conducted in a mixture of tetrahydrofuran (THF), acetone, and n-heptane using similar procedures as above afford Form II of the crystalline Compound 1 drug substance was obtained. Both Form I and Form II have very sharp melting endotherm peaks on DSC, and the two forms are about one degree difference in peak melting temperature: 266.4° C. for Form I and 267.5° C. for Form II.

Structure (SMILES) | relative stability of the crystalline form in MeOH and acetone ([1]; MeOH and acetone) | interconversion of forms ([1]; mixture of methanol, acetone, and n-heptane, depending on solvent ratio, temperature, and time) | stability in aqueous suspension [2] | relative stability of the crystalline form in IPA ([1]; IPA)
CN1C(=O)C(C)(C)Oc2c(-c3cn(C)c(=O)c4[nH]ccc34)cc(S(C)(=O)=O)cc21 [Form I, 2,2,4-trimethyl-8-(6-methyl-7-oxo-6,7-dihydro-1H-pyrrolo[2,3-c]pyridin-4-yl)-6-(methylsulfonyl)-2H-benzo[b][1,4]oxazin-3(4H)-one] | most stable form | could be interconverted to each other | stable in aqueous suspension | 
CN1C(=O)C(C)(C)Oc2c(-c3cn(C)c(=O)c4[nH]ccc34)cc(S(C)(=O)=O)cc21 [Form II, 2,2,4-trimethyl-8-(6-methyl-7-oxo-6,7-dihydro-1H-pyrrolo[2,3-c]pyridin-4-yl)-6-(methylsulfonyl)-2H-benzo[b][1,4]oxazin-3(4H)-one] |  |  |  | more stable
